Experimental data from patent US20130029942A1, “COMPOUNDS AND THERAPEUTICAL USES THEREOF” (Myrexis, Inc., priority 2003, published 2013).

Each compound was assayed on T-47D cells (assay: Caspase cascade activation / induction of apoptosis in T-47D cells (fluorogenic N-(Ac-DEVD)-N'-ethoxycarbonyl-R110 substrate)). Settings: Homo sapiens, T47D, 24 h, read-out: T-47D (24 hr) EC50 (nM).
Format: cell-based, human
Work on `[2H]c1c([2H])c(N(C)c2nc(C)nc3ccccc23)c([2H])c([2H])c1OC` [Example 108, (4-Methoxy-phenyl-2,3,5,6-d4)-(2-methyl-quinazolin-4-yl)-methyl-amine] yielded an EC50 of 1 nM. With `COc1ccc(N(C)c2nc(C)nc3cc([N+](=O)[O-])ccc23)cc1` [Example 112, (4-Methoxy-phenyl)-methyl-(2-methyl-7-nitro-quinazolin-4-yl)-amine] the EC50 was over 10000 nM.

Same assay, conditions: Homo sapiens, T47D; T-47D, 24 hr; read-out: T-47D (24 hr) EC50
`COc1ccc(N(C)c2ccnc3ccccc23)cc1` [Example 66, (4-Methoxy-phenyl)-methyl-(quinolin-4-yl)-amine] was tested, and the EC50 was 18 nM. `COc1ccc(N(C)c2nc(CCl)nc3ccccc23)cc1` [Example 73, (2-Chloromethyl-quinazolin-4-yl)-(4-methoxy-phenyl)-methyl-amine] was tested, and the EC50 was 679 nM. In the case of `COc1ccc(N(C)c2nc(CO)nc3ccccc23)cc1` [Example 76], the EC50 is reported as 7 nM. `COc1ccc(N(C)c2nc(CN(C)C)nc3ccccc23)cc1` [Example 77, (2-Dimethylaminomethyl-quinazolin-4-yl)-(4-methoxy-phenyl)-methyl-amine] showed an EC50 of 700 nM. For `Cc1nc(Nc2ccc(OC(F)F)cc2)c2ccccc2n1` [Example 78, (4-Difluoromethoxy-phenyl)-(2-methyl-quinazolin-4-yl)-amine], the EC50 was over 10000 nM. Work on `COc1ccc(Nc2nc(C)nc3ccccc23)cc1F` [Example 79, (3-Fluoro-4-methoxy-phenyl)-(2-methyl-quinazolin-4-yl)-amine] yielded an EC50 of over 10000 nM. Work on `Cc1nc(Nc2ccc(OC(C)C)cc2)c2ccccc2n1` [Example 80, (4-Isopropoxy-phenyl)-(2-methyl-quinazolin-4-yl)-amine] yielded an EC50 of 5750 nM. Compound `CCc1ccc(Nc2nc(C)nc3ccccc23)cc1` [Example 81, (4-Ethyl-phenyl)-(2-methyl-quinazolin-4-yl)-amine] has an EC50 of over 10000 nM. Work on `COc1cc(OC)c(Nc2nc(C)nc3ccccc23)c(OC)c1` [Example 82, (2-Methyl-quinazolin-4-yl)-(2,4,6-trimethoxy-phenyl)-amine] yielded an EC50 of over 10000 nM. Work on `Cc1nc(N(C)c2ccc(OC(F)F)cc2)c2ccccc2n1` [Example 84, (4-Difluoromethoxy-phenyl)-(2-methyl-quinazolin-4-yl)-methyl-amine] yielded an EC50 of 8 nM. `COc1ccc(N(C)c2nc(C)nc3ccccc23)cc1F` [Example 85, (3-Fluoro-4-methoxy-phenyl)-(2-methyl-quinazolin-4-yl)-methyl-amine] gave an EC50 of 2 nM. With `Cc1nc(N(C)c2ccc(OC(C)C)cc2)c2ccccc2n1` [Example 86, (4-Isopropoxy-phenyl)-(2-methyl-quinazolin-4-yl)-methyl-amine] the EC50 was 41 nM. For `CCc1ccc(N(C)c2nc(C)nc3ccccc23)cc1` [Example 87, (4-Ethyl-phenyl)-(2-methyl-quinazolin-4-yl)-methyl-amine], the EC50 was 25 nM. With `COc1cc(OC)c(N(C)c2nc(C)nc3ccccc23)c(OC)c1` [Example 88, (2-Methyl-quinazolin-4-yl)-(2,4,6-trimethoxy-phenyl)-methyl-amine] the EC50 was 556 nM. Work on `COc1ccc(N(C)c2nc(Cl)nc3cccc(Cl)c23)cc1` [Example 90, (2,5-Dichloro-quinazolin-4-yl)-(4-methoxy-phenyl)-methyl-amine] yielded an EC50 of 2 nM. In the case of `COc1ccc(N(C)c2nc(C)nc3cccc(OC)c23)cc1` [Example 91, (5-Methoxy-2-methyl-quinazolin-4-yl)-(4-methoxy-phenyl)-methyl-amine], the EC50 is reported as 4 nM. Compound `COc1ccc(N(C)c2nc(C)nc3ncccc23)cc1` [Example 92, (4-Methoxy-phenyl)-(2-methyl-pyrido[2,3-d]pyrimidin-4-yl)-methyl-amine] has an EC50 of 16 nM. `Cc1nc(N(C)c2ccc(O)cc2)c2ccccc2n1` [Example 93, (4-Hydroxy-phenyl)-(2-methyl-quinazolin-4-yl)-methyl-amine] gave an EC50 of 65 nM. Work on `COc1ccc(Nc2nc(C)nc3ccccc23)cn1` [Example 95, (2-Methyl-quinazolin-4-yl)-(6-methoxy-pyridin-3-yl)-amine] yielded an EC50 of over 10000 nM. Work on `COc1ccc(Nc2nc(C)nc3ccccc23)c(F)c1` [Example 96, (2-Fluoro-4-methoxy-phenyl)-(2-methyl-quinazolin-4-yl)-amine] yielded an EC50 of over 10000 nM. `COc1ccc(N(C)c2nc(C)nc3ccccc23)c(F)c1` [Example 99, (2-Fluoro-4-methoxy-phenyl)-(2-methyl-quinazolin-4-yl)-methyl-amine] gave an EC50 of 4 nM. Compound `Cc1nc(N(C)c2ccc([N+](=O)[O-])cc2)c2ccccc2n1` [Example 100, (2-Methyl-quinazolin-4-yl)-(4-nitro-phenyl)-methyl-amine] has an EC50 of 474 nM. `Cc1nc(N(C)c2ccc(N)cc2)c2ccccc2n1` [Example 101, (4-Amino-phenyl)-(2-methyl-quinazolin-4-yl)-methyl-amine] was tested, and the EC50 was 175 nM. In the case of `Cc1nc(N(C)c2ccc(N=[N+]=[N-])cc2)c2ccccc2n1` [Example 102, (4-Azido-phenyl)-(2-methyl-quinazolin-4-yl)-methyl-amine], the EC50 is reported as 5 nM. For `Cc1nc(N(C)c2c(Br)cc(N)cc2Br)c2ccccc2n1` [Example 103, (4-Amino-2,6-dibromo-phenyl)-(2-methyl-quinazolin-4-yl)-methyl-amine], the EC50 was 552 nM. Compound `Cc1nc(N(C)c2ccc(N)cc2Br)c2ccccc2n1` [Example 104, (4-Amino-2-bromo-phenyl)-(2-methyl-quinazolin-4-yl)-methyl-amine] has an EC50 of 134 nM. Compound `Cc1nc(N(C)c2ccc(N(C)C)cc2)c2ccccc2n1` [Example 105, (4-Dimethylamino-phenyl)-(2-methyl-quinazolin-4-yl)-methyl-amine] has an EC50 of 2 nM. Work on `CCOc1ccc(Nc2nc(C)nc3ccccc23)cc1` [Example 106, (4-Ethoxy-phenyl)-(2-methyl-quinazolin-4-yl)-amine] yielded an EC50 of over 10000 nM. `CCOc1ccc(N(C)c2nc(C)nc3ccccc23)cc1` [Example 107, (4-Ethoxy-phenyl)-(2-methyl-quinazolin-4-yl)-methyl-amine] was tested, and the EC50 was 5 nM. `COc1ccc(N(C)c2nc(C)nc3ccc([N+](=O)[O-])cc23)cc1` [Example 109, (4-Methoxy-phenyl)-(2-methyl-6-nitro-quinazolin-4-yl)-methyl-amine] showed an EC50 of 274 nM. Work on `COc1ccc(N(C)c2nc(C)nc3ccc(N)cc23)cc1` [Example 110, (6-Amino-2-methyl-quinazolin-4-yl)-(4-methoxy-phenyl)-methyl-amine] yielded an EC50 of 7 nM. `COc1ccc(N(C)c2nc(C)nc3ccc(N=[N+]=[N-])cc23)cc1` [Example 111, (6-Azido-2-methyl-quinazolin-4-yl)-(4-methoxy-phenyl)-methyl-amine] gave an EC50 of 32 nM. `COc1ccc(N(C)c2nc(C)nc3cc(N)ccc23)cc1` [Example 113, (7-Amino-2-methyl-quinazolin-4-yl)-(4-methoxy-phenyl)-methyl-amine] gave an EC50 of 735 nM. In the case of `COc1ccc(N(C)c2nc(C)nc3cc(N=[N+]=[N-])ccc23)cc1` [Example 114, (7-Azido-2-methyl-quinazolin-4-yl)-(4-methoxy-phenyl)-methyl-amine], the EC50 is reported as 130 nM. For `COc1c(Br)cc(N(C)c2nc(C)nc3ccc([N+](=O)[O-])cc23)cc1Br` [Example 115, (3,5-Dibromo-4-methoxy-phenyl)-(2-methyl-6-nitro-quinazolin-4-yl)-methyl-amine], the EC50 was over 10000 nM.

Same assay, conditions: Homo sapiens, T47D; T-47D, 48 hr; read-out: T-47D (48 hr) EC50
For `COc1ccc(N(C)c2nc(Cl)nc3ccc(Cl)cc23)cc1` [Example 60, (2,6-Dichloro-quinazolin-4-yl)-(4-methoxy-phenyl)-methyl-amine], the EC50 was 13 nM. With `COc1ccc(N(C)c2nc(N(C)c3ccc(OC)cc3)c3cc(Cl)ccc3n2)cc1` [Example 61, 6-Chloro-N^2,N^4-bis-(4-methoxy-phenyl)-N^2,N^4-dimethyl-quinazoline-2,4-diamine] the EC50 was 4050 nM. In the case of `COc1ccc(N(C)c2nc(Cl)nc3cc(Cl)ccc23)cc1` [Example 62, (2,7-Dichloro-quinazolin-4-yl)-(4-methoxy-phenyl)-methyl-amine], the EC50 is reported as 316 nM. In the case of `COc1ccc(N(C)c2nc(N(C)c3ccc(OC)cc3)c3c(Cl)cccc3n2)cc1` [Example 63, 5-Chloro-N^2,N^4-bis-(4-methoxy-phenyl)-N^2,N^4-dimethyl-quinazoline-2,4-diamine], the EC50 is reported as 427 nM. Compound `COc1ccc(N(C)c2nc(OC(C)C)nc3cccc(Cl)c23)cc1` [Example 64, (5-Chloro-2-isopropoxy-quinazolin-4-yl)-(4-methoxy-phenyl)-methyl-amine] has an EC50 of over 10000 nM. Compound `COc1ccc(N(C)c2ccnc3ccccc23)cc1` [Example 66, (4-Methoxy-phenyl)-methyl-(quinolin-4-yl)-amine] has an EC50 of 22 nM. In the case of `CN(c1ccc2c(c1)OCO2)c1nc(Cl)nc2ccccc12` [Example 67, (2-Chloro-quinazolin-4-yl)-(3,4-methylenedioxyphenyl)-methyl-amine], the EC50 is reported as 38 nM. Work on `COc1ccc(N(C)c2nc(Cl)nc3ccccc23)cc1OC` [Example 68, (2-Chloro-quinazolin-4-yl)-(3,4-dimethoxy-phenyl)-methyl-amine] yielded an EC50 of 4 nM. With `CN(c1ccc(Oc2ccccc2)cc1)c1nc(Cl)nc2ccccc12` [Example 69, (2-Chloro-quinazolin-4-yl)-(4-phenoxy-phenyl)-methyl-amine] the EC50 was over 1000 nM. Compound `CCCOc1ccc(N(C)c2nc(Cl)nc3ccccc23)cc1` [Example 70, (2-Chloro-quinazolin-4-yl)-(4-propoxy-phenyl)-methyl-amine] has an EC50 of 42 nM. Compound `COc1ccc(Oc2ncnc3ccccc23)cc1` [Example 71, 4-(4-Methoxy-phenoxy)-quinazoline] has an EC50 of 2260 nM. With `COc1ccc(N(C)c2nc(CCl)nc3ccccc23)cc1` [Example 73, (2-Chloromethyl-quinazolin-4-yl)-(4-methoxy-phenyl)-methyl-amine] the EC50 was 543 nM. For `COc1ccc(N(C)c2nc(CO)nc3ccccc23)cc1` [Example 76], the EC50 was 8 nM. In the case of `COc1ccc(N(C)c2nc(CN(C)C)nc3ccccc23)cc1` [Example 77, (2-Dimethylaminomethyl-quinazolin-4-yl)-(4-methoxy-phenyl)-methyl-amine], the EC50 is reported as 2110 nM. `COc1ccc(N(C)c2nc(-c3ccccc3)nc3ccccc23)cc1` [Example 83, (4-Methoxy-phenyl)-(2-phenyl-quinazolin-4-yl)-methyl-amine] was tested, and the EC50 was 168 nM. `COc1ccc(N(C)c2nc(Cl)nc3c(Cl)cccc23)cc1` [Example 89, (2,8-Dichloro-quinazolin-4-yl)-(4-methoxy-phenyl)-methyl-amine] gave an EC50 of 24 nM. Work on `CCOc1ccc(Nc2nc(Cl)nc3ccccc23)cc1` [Example 94, (2-Chloro-quinazolin-4-yl)-(4-ethoxy-phenyl)-amine] yielded an EC50 of over 10000 nM. Compound `CCOc1ccc(N(C)c2nc(Cl)nc3ccccc23)cc1` [Example 97, (2-Chloro-quinazolin-4-yl)-(4-ethoxy-phenyl)-methylamine] has an EC50 of 5 nM. `Cc1nc(N(C)c2ccc(N=[N+]=[N-])cc2)c2ccccc2n1` [Example 102, (4-Azido-phenyl)-(2-methyl-quinazolin-4-yl)-methyl-amine] showed an EC50 of 16 nM.
